Results: the supplement of paper PMC10307832

Legend:
Experiment in all cases: relative viability (nuclei count vs DMSO), 5 days (fraction); higher = more cells survive
Axitinib + Navitoclax = compound: CNC(=O)c1ccccc1Sc1ccc2c(/C=C/c3ccccn3)n[nH]c2c1 [Axitinib] + CC1(C)CCC(c2ccc(Cl)cc2)=C(CN2CCN(c3ccc(C(=O)NS(=O)(=O)c4ccc(N[C@H](CCN5CCOCC5)CSc5ccccc5)c(S(=O)(=O)C(F)(F)F)c4)cc3)CC2)C1 [Navitoclax] (partner 0.5 µM)
How it was run: (§1)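 Relative viability is defined as nuclei in treated wells over nuclei in vehicle wells. Duplicate plates were run and medians reported. Lung cancer cell lines in 1536-well plates were dosed by pin tool one day after seeding, with one drug or with a fixed anchor-drug dose plus five library-drug doses (not always all listed) in √10 steps, and nuclei were counted after 5 days.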

Bemcentinib + AZD7762 = compound: Nc1nc(Nc2ccc3c(c2)CC[C@@H](N2CCCC2)CC3)nn1-c1cc2c(nn1)-c1ccccc1CCC2 [Bemcentinib] + NC(=O)Nc1cc(-c2cccc(F)c2)sc1C(=O)N[C@H]1CCCNC1 [AZD7762] (partner 0.2 µM)
How it was run: as §1

Bemcentinib + Decitabine = compound: Nc1nc(Nc2ccc3c(c2)CC[C@@H](N2CCCC2)CC3)nn1-c1cc2c(nn1)-c1ccccc1CCC2 [Bemcentinib] + Nc1ncn([C@H]2C[C@H](O)[C@@H](CO)O2)c(=O)n1 [Decitabine] (partner 2 µM)
How it was run: as §1

Bemcentinib + Vorinostat = compound: Nc1nc(Nc2ccc3c(c2)CC[C@@H](N2CCCC2)CC3)nn1-c1cc2c(nn1)-c1ccccc1CCC2 [Bemcentinib] + O=C(CCCCCCC(=O)Nc1ccccc1)NO [Vorinostat] (partner 1 µM)
How it was run: as §1

Row | Cell Line | relative viability (Axitinib + Navitoclax; first compound 0.005 µM) | relative viability (Axitinib + Navitoclax; first compound 0.01581 µM) | relative viability (Axitinib + Navitoclax; first compound 0.05 µM) | relative viability (Axitinib + Navitoclax; first compound 0.1581 µM) | relative viability (Axitinib + Navitoclax; first compound 0.5 µM) | relative viability (Bemcentinib + AZD7762; first compound 0.04 µM) | relative viability (Bemcentinib + AZD7762; first compound 0.1265 µM) | relative viability (Bemcentinib + AZD7762; first compound 0.4 µM) | relative viability (Bemcentinib + AZD7762; first compound 1.265 µM) | relative viability (Bemcentinib + AZD7762; first compound 4 µM) | relative viability (Bemcentinib + Decitabine; first compound 0.04 µM) | relative viability (Bemcentinib + Decitabine; first compound 0.1265 µM) | relative viability (Bemcentinib + Decitabine; first compound 0.4 µM) | relative viability (Bemcentinib + Decitabine; first compound 1.265 µM) | relative viability (Bemcentinib + Decitabine; first compound 4 µM) | relative viability (Bemcentinib + Vorinostat; first compound 0.04 µM) | relative viability (Bemcentinib + Vorinostat; first compound 0.1265 µM) | relative viability (Bemcentinib + Vorinostat; first compound 0.4 µM) | relative viability (Bemcentinib + Vorinostat; first compound 1.265 µM) | relative viability (Bemcentinib + Vorinostat; first compound 4 µM)
1 | NCI-H1793 | 0.438 | 0.386 | 0.424 | 0.514 | 0.504 | 0.617 | 0.498 | 0.407 | 0.19 | 0.23 | 0.475 | 0.495 | 0.5 | 0.549 | 0.586 | 0.63 | 1.15 | 0.74 | 0.461 | 0.699
2 | HCC-78 | 0.873 | 0.842 | 0.727 | 0.754 | 0.737 | 0.633 | 0.717 | 0.556 | 0.672 | 0.614 | 0.691 | 0.655 | 0.636 | 0.655 | 0.637 | 0.456 | 0.449 | 0.394 | 0.514 | 0.39
3 | NCI-H322M | 1.18 | 1.14 | 1.07 | 1.08 | 1.07 | 0.545 | 0.564 | 0.593 | 0.681 | 0.617 | 0.686 | 0.731 | 0.716 | 0.841 | 0.704 | 0.863 | 0.931 | 0.836 | 0.952 | 0.899
4 | COR-L23 | 0.948 | 0.983 | 1.15 | 1.07 | 1.15 |  |  |  |  |  | 0.465 | 0.467 | 0.481 | 0.472 | 0.456 | 0.468 | 0.47 | 0.522 | 0.477 | 0.521
5 | 201T | 1.21 | 1.18 | 1.18 | 1.27 | 1.23 | 0.643 | 0.668 | 0.605 | 0.611 | 0.625 | 0.827 | 0.903 | 0.893 | 0.979 | 0.868 | 0.962 | 0.981 | 1.04 | 0.938 | 1.06
6 | NCI-H2347 | 0.793 | 0.857 | 0.902 | 0.818 | 0.934 | 0.684 | 0.792 | 0.728 | 0.67 | 0.652 | 0.653 | 0.573 | 0.665 | 0.678 | 0.639 | 0.544 | 0.596 | 0.718 | 0.67 | 0.575
7 | LCLC-97TM1 | 0.485 | 0.506 | 0.475 | 0.489 | 0.534 | 0.183 | 0.298 | 0.186 | 0.28 | 0.309 | 0.248 | 0.212 | 0.217 | 0.207 | 0.252 | 0.727 | 0.703 | 0.702 | 0.633 | 0.829
8 | NCI-H2126 | 0.81 | 0.877 | 0.824 | 0.841 | 0.765 | 1.05 | 1.01 | 0.999 | 1.09 | 1.09 | 0.582 | 0.588 | 0.601 | 0.634 | 0.557 | 0.76 | 0.787 | 0.791 | 0.812 | 0.889
9 | NCI-H1944 | 1.07 | 0.995 | 1.01 | 1.02 | 1.06 | 0.645 | 0.563 | 0.488 | 0.452 | 0.32 | 0.413 | 0.39 | 0.443 | 0.443 | 0.417 | 0.521 | 0.611 | 0.608 | 0.527 | 0.561
10 | HCC-15 | 0.763 | 0.699 | 0.727 | 0.706 | 0.78 | 1.22 | 1.4 | 1.19 | 1.26 | 1.38 | 0.641 | 0.696 | 0.71 | 0.646 | 0.661 | 0.853 | 0.953 | 0.913 | 0.927 | 0.879
11 | NCI-H2405 | 0.913 | 0.933 | 0.881 | 0.857 | 1.11 | 0.744 | 0.875 | 0.887 | 0.819 | 0.605 | 0.74 | 0.717 | 0.799 | 0.821 | 0.761 | 0.991 | 1.07 | 1.1 | 1.08 | 1.06
12 | COR-L 105 | 1 | 0.828 | 0.795 | 0.65 | 1.07 |  |  |  |  |  | 0.593 | 0.721 | 0.678 | 0.67 | 0.667 | 0.751 | 0.985 | 0.918 | 0.933 | 0.826
13 | ABC-1 |  |  |  |  |  |  | 0.937 | 0.799 | 0.816 | 1.09 | 0.899 | 1.23 | 1.03 | 0.835 | 1.14 | 1.01 | 1.1 | 1.11 | 0.856 | 0.892
14 | HCC-366 | 1.07 | 1.03 | 1.01 | 1.06 | 1.15 | 0.253 | 0.382 | 0.248 | 0.163 | 0.208 | 0.335 | 0.362 | 0.395 | 0.369 | 0.341 | 0.32 | 0.43 | 0.441 | 0.303 | 0.433
15 | NCI-H2342 |  |  |  |  |  | 0.415 | 0.516 | 0.472 | 0.52 | 0.493 | 0.746 | 0.768 | 0.771 | 0.73 | 0.827 | 0.833 | 0.807 | 0.746 | 0.678 | 0.808
16 | NCI-H2085 | 1.09 | 1.28 | 1.26 | 1.03 | 1.18 | 0.956 | 1.03 | 0.863 | 0.767 | 0.748 | 0.539 | 0.583 | 0.498 | 0.551 | 0.554 | 0.762 | 0.822 | 0.778 | 0.795 | 0.764
17 | BEN | 0.074 | 0.0723 | 0.0728 | 0.0721 | 0.0571 | 0.554 | 0.637 | 0.638 | 0.674 | 0.634 | 0.696 | 0.784 | 0.762 | 0.629 | 0.677 | 0.567 | 0.627 | 0.562 | 0.56 | 0.6
